Test systems include TK-10; NCI-H522; HOP-92; IGROV-1; HL-60; SN12C; SF-295; NCI-H460; DLD-1; KM12; HT-29; U-251; SNB-75; EKVX; MCF7; MDA-MB-435; NCI/ADR-RES; DU-145; BT-549; Hs-578T.
What all share (assay): NCI-60 cell line screen, 48 h

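Each compound was tested at five concentrations against cells in 96-well plates for 48 hours. The concentration for 50% growth inhibition is given as GI50.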 The source made the active and inactive calls. No stated cut-off is given here; in the data, active = GI50 up to about 1.1 µM and inactive = higher.

With `NC(=S)N/N=C(\CC1OC(=O)c2ccccc21)c1ccc(Cl)cc1` (centres undefined), the GI50 in the experiment on TK-10 was 76.9 µM (inactive); with NCI-H522, 20.9 µM (inactive); with HOP-92, 23.1 µM (inactive); with IGROV-1, 40.3 µM (inactive); with HL-60 it was 98.2 µM (inactive); in the experiment with SN12C it was 35.2 µM (inactive). The GI50 is 41.9 µM (inactive) in the experiment on SF-295; 34.3 µM (inactive) in the experiment on NCI-H460; 41.3 µM (inactive) in the experiment with DLD-1; 22 µM (inactive) in the experiment with KM12; 27.2 µM (inactive) in the experiment with HT-29; 22.5 µM (inactive) with U-251. For the same molecule, the GI50 in the experiment on SNB-75 is 49.2 µM (inactive).

Regarding `O=S(=O)(c1ccccc1)c1nccs1`, the GI50 with TK-10, with NCI-H522, in the experiment on IGROV-1, in the experiment with HL-60, in the experiment on SN12C and in the experiment on SF-295 was > 100 µM (inactive) each time. Also, the GI50 in the experiment with NCI-H460, with DLD-1, in the experiment on KM12, with HT-29, with U-251 and in the experiment on EKVX was > 100 µM (inactive) in each case. The GI50 with SNB-75 is > 100 µM (inactive).

On to `COC(=O)c1sc(C(=O)OC)c2c1C[S+]([O-])C2`, for which the GI50 with TK-10, with NCI-H522, in the experiment with HOP-92, with IGROV-1, in the experiment on HL-60 and with SF-295 was > 100 µM (inactive) each time. For the same molecule, the GI50 with DLD-1, with KM12, in the experiment on HT-29, in the experiment with U-251, with EKVX and with SNB-75 was > 100 µM (inactive) in each case.

For `CNS(=O)(=O)NNS(=O)(=O)c1ccc(C)cc1`, the GI50 with TK-10, in the experiment with NCI-H522, in the experiment on HOP-92, in the experiment on IGROV-1, with HL-60 and in the experiment on SN12C was > 100 µM (inactive) each time. Further, the GI50 in the experiment on SF-295, in the experiment on NCI-H460, with DLD-1, in the experiment with KM12, in the experiment on HT-29 and in the experiment on EKVX was > 100 µM (inactive) each time.

With `O=C1N[C@@H]2CCCC[C@@H]2C12CCCCC2`, the GI50 with TK-10, in the experiment with IGROV-1, in the experiment with HL-60, in the experiment with SN12C, in the experiment with SF-295 and with NCI-H460 was > 100 µM (inactive) in each case. Further, the GI50 in the experiment on DLD-1, in the experiment on KM12, in the experiment on HT-29, in the experiment with U-251, in the experiment on EKVX and with SNB-75 was > 100 µM (inactive) throughout.

Turning to `Cc1ccc2nc(/C(=C/c3ccc(/C=C(\NC(=O)c4ccccc4)c4nc5ccc(C)cc5[nH]4)c(C)c3)NC(=O)c3ccccc3)[nH]c2c1`, the GI50 was 47.1 µM (inactive) in the experiment with TK-10; 22.2 µM (inactive) in the experiment with NCI-H522; 16.4 µM (inactive) in the experiment on HOP-92; 1.81 µM (inactive) with IGROV-1; 5.5 µM (inactive) with SN12C; 13.2 µM (inactive) with NCI-H460. The GI50 was 3.02 µM (inactive) in the experiment on DLD-1; 17.1 µM (inactive) in the experiment on KM12; 28.1 µM (inactive) in the experiment with HT-29; 22.7 µM (inactive) in the experiment on U-251; 12.5 µM (inactive) with EKVX; 7.08 µM (inactive) in the experiment with SNB-75.

For the molecule `O=C(/N=C(/Nc1ccccc1)SCS/C(=N\C(=O)c1ccco1)Nc1ccccc1)c1ccco1`, the GI50 in the experiment on TK-10 is 29.4 µM (inactive); with NCI-H522 it was 27.4 µM (inactive); in the experiment on HOP-92 it was 18.7 µM (inactive); in the experiment with IGROV-1, 63.4 µM (inactive); with SN12C, 84.1 µM (inactive); in the experiment on SF-295, 26.5 µM (inactive). Also, the GI50 is > 100 µM (inactive) in the experiment on NCI-H460; 44 µM (inactive) with DLD-1; > 100 µM (inactive) with KM12; > 100 µM (inactive) in the experiment with HT-29; 32 µM (inactive) in the experiment with U-251; 33.9 µM (inactive) in the experiment on EKVX. For the same molecule, the GI50 in the experiment with SNB-75 is 16.9 µM (inactive).

As for `CN(C)CCC1(C2=CCCC2)CC/C(=C\c2ccc3c(c2)OCO3)C1=O` (centres undefined), the GI50 in the experiment with TK-10 was 15.8 µM (inactive); in the experiment on HOP-92 it was 11.4 µM (inactive); in the experiment with IGROV-1, > 10 µM (inactive); in the experiment with HL-60, 14.3 µM (inactive); in the experiment on SN12C, 14.5 µM (inactive); in the experiment with SF-295, 16 µM (inactive). The GI50 is 18.4 µM (inactive) with NCI-H460; 17.1 µM (inactive) with DLD-1; 15.8 µM (inactive) in the experiment with KM12; 12.2 µM (inactive) with HT-29; 15.6 µM (inactive) in the experiment with U-251; 15.8 µM (inactive) in the experiment on EKVX.

For the molecule `Cc1cccc(Cl)c1NC(N)=S`, the GI50 in the experiment on TK-10 was 50.9 µM (inactive); with HOP-92 it was 35.4 µM (inactive); in the experiment with IGROV-1, 35.4 µM (inactive); with HL-60 it was 38.4 µM (inactive); in the experiment with SN12C, > 100 µM (inactive); in the experiment on SF-295, 73.8 µM (inactive). Also, the GI50 with NCI-H460 is 51.3 µM (inactive); in the experiment on DLD-1, 57.7 µM (inactive); in the experiment with KM12, > 100 µM (inactive); in the experiment on HT-29 it was 43.4 µM (inactive); in the experiment with U-251 it was 20.8 µM (inactive); with EKVX, 48.2 µM (inactive). Besides, the GI50 in the experiment on SNB-75 is 47.1 µM (inactive).

Take `NNC(=O)N/N=C1/C(=O)N(c2ccc(Cl)c(Cl)c2)C(=O)C(=O)C1c1nc2ccccc2o1` (centres undefined): the GI50 is > 100 µM (inactive) with TK-10; 62.4 µM (inactive) with NCI-H522; > 100 µM (inactive) in the experiment with HOP-92; > 100 µM (inactive) in the experiment with IGROV-1; 42.9 µM (inactive) with HL-60; > 100 µM (inactive) in the experiment with SN12C. Besides, the GI50 is > 100 µM (inactive) in the experiment on SF-295; > 100 µM (inactive) in the experiment on DLD-1; > 100 µM (inactive) in the experiment with HT-29; > 100 µM (inactive) in the experiment with U-251; 45.3 µM (inactive) with EKVX; > 100 µM (inactive) with SNB-75.

Turning to `CCCCC[C@@H]1OCO[C@@]2(C)/C=C(C)\C=C/C(=O)O[C@H]([C@@H](C)[C@@H](O)[C@H](C)[C@@]3(O)C[C@@H](O[C@H]4C[C@@H](O)[C@H](O)[C@@H](C)O4)[C@H](C)[C@@H](C)O3)[C@@H](OC)/C=C\C=C(\C)C[C@@H]1[C@@H]2O` (stereo in doubt), the GI50 in the experiment on TK-10 is 0.119 µM (active); with NCI-H522, < 0.005 µM (active); in the experiment on HOP-92, < 0.005 µM (active); in the experiment on MCF7, < 0.005 µM (active); in the experiment on MDA-MB-435 it was < 0.005 µM (active); in the experiment on NCI/ADR-RES, 0.5 µM (active). The GI50 is < 0.005 µM (active) with DU-145; < 0.005 µM (active) in the experiment on IGROV-1; < 0.005 µM (active) with HL-60; 0.0231 µM (active) with SN12C; < 0.005 µM (active) with SF-295; < 0.005 µM (active) in the experiment with NCI-H460. Further, the GI50 with BT-549 was 0.5 µM (active); with KM12, < 0.005 µM (active); with HT-29 it was < 0.005 µM (active); in the experiment with U-251 it was < 0.005 µM (active); with Hs-578T, 1.2 µM (inactive); with EKVX, < 0.005 µM (active). In addition, the GI50 with SNB-75 is < 0.005 µM (active).

Turning to `O=c1[nH]c2cc(Cl)ccc2nc1/C(=N/Nc1ccccc1)C(O)c1ccco1` (centres undefined), the GI50 in the experiment with TK-10, in the experiment with NCI-H522, in the experiment on HOP-92, with MCF7, with MDA-MB-435 and in the experiment on NCI/ADR-RES was > 100 µM (inactive) in each case. Besides, the GI50 in the experiment on DU-145, with IGROV-1, with HL-60, in the experiment with SN12C, with SF-295 and in the experiment on NCI-H460 was > 100 µM (inactive) in each case. The GI50 in the experiment on BT-549, in the experiment on KM12, with HT-29, in the experiment with U-251, in the experiment on Hs-578T and in the experiment with EKVX was > 100 µM (inactive) each time. For the same molecule, in the experiment on SNB-75, the GI50 was > 100 µM (inactive).

For `CCOC(=O)C(NNS(=O)(=O)c1ccc(C)cc1)S(=O)(=O)C(F)(F)C(F)(F)C(F)(F)C(F)(F)F` (centres undefined), the GI50 was > 100 µM (inactive) with TK-10; > 100 µM (inactive) in the experiment on NCI-H522; 54.7 µM (inactive) in the experiment on HOP-92; > 100 µM (inactive) in the experiment with MCF7; > 100 µM (inactive) with MDA-MB-435; > 100 µM (inactive) in the experiment with NCI/ADR-RES. For the same molecule, the GI50 with DU-145 was > 100 µM (inactive); in the experiment with IGROV-1, > 100 µM (inactive); in the experiment with HL-60, > 100 µM (inactive); in the experiment with SN12C, > 100 µM (inactive); in the experiment with SF-295, 78.3 µM (inactive); in the experiment on NCI-H460 it was > 100 µM (inactive). The GI50 was > 100 µM (inactive) in the experiment with BT-549; > 100 µM (inactive) with KM12; > 100 µM (inactive) in the experiment with HT-29; 88.9 µM (inactive) in the experiment with U-251; 97.3 µM (inactive) with Hs-578T; > 100 µM (inactive) in the experiment on EKVX. The GI50 in the experiment on SNB-75 is > 100 µM (inactive).

`O=c1cccccc1NCCOCCNc1cccccc1=O`: the GI50 in the experiment with TK-10, in the experiment on NCI-H522, with IGROV-1, in the experiment with HL-60, with SN12C and with SF-295 was > 100 µM (inactive) each time. Besides, the GI50 in the experiment with NCI-H460, with DLD-1, in the experiment with KM12, with HT-29, in the experiment with U-251 and in the experiment with EKVX was > 100 µM (inactive) in each case. Further, in the experiment on SNB-75, the GI50 was 16.9 µM (inactive).

For the origin of these results see ChEMBL document CHEMBL1201862, “PubChem BioAssay data set” (2004).
